Read-outs that look alike come from different tables or passages of the source.
What was measured:
Type in all cases: cell-based
[1] = system: PC9 cells (EGFR Exon 19 del, non-small cell lung cancer cells); assay: Cell viability assay (WST/CCK8), PC9 cells; details: Homo sapiens, PC-9, 72 hours, read-out: IC50 (half inhibitory concentration)
Outline: (§1)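 Cells seeded at 3 000/well in RPMI1640 complete medium, dosed next day with compounds (top 10 μM, 3-fold, 10 points) for 72 h. Viability read with WST (CCK8) reagent; DMSO as negative control, EGFR TKIs as positive controls; IC50 determined.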

[2] = system: HCC827 cells (EGFR Exon19 del, non-small cell lung cancer cells); assay: Cell viability assay (WST/CCK8), HCC827 cells; details: Homo sapiens, HCC827, 72 h, HCC827 (Exon19 Del), 72 hours, read-out: IC50 (half inhibitory concentration)
Outline: as §1

[3] = system: PC9 DCT (Del19+T790M+C797S) cells; assay: Cell viability assay, PC9 cells with EGFR triple mutation; details: Homo sapiens, PC-9; Table 9; PC9 (Del + T790M + C797S), EGFR triple mutations; read-out: IC50 (half inhibitory concentration)
From the text: Construction of EGFR triple mutant cell line PC9 DCT (Dell9+T790M+C797S): The cDNA expressing human EGFR was cloned into pLVX vector, and exon 19 deletion mutation (746-750) and T790M mutation were introduced by point mutation and C797S mutation. Transferred into PC9 cells by lentiviral packaging. Cells stably expressing EGFR triple mutations were obtained by fluorescence screening.
The cDNA sequence expressing human EGFR was cloned into a pLVX vector (GFP^+), and then introduce the EGFR exon 19 deletion (746-750), exon 20 T790M and C797S mutations by were generated by site-directed mutagenesis. The PC9 cells were infected with lentivirus containing the indicated EGFR mutations, and the cells stably expressing EGFR triple mutation were obtained by fluorescence screening.
All of the half inhibitory concentrations (IC50) of these compounds of the present invention were determined with WST reagent from Fuyuan Biotec Company. The specific experiment procedures are as follows: Cancer cells were planted in 96-well-plate at the density of 3 000 cells per well with 100 μL RPMI1640 completed culture medium. In the next day, compounds with indicated concentrations were added to the cells, DMSO was used as the negative control and the EGFR TKIs were used to treat cells as the positive groups. After 72 hours drug treatment, cell viability was measured by using the WST reagent following the instructions. The growth inhibition curve of the compounds on cells were plotted by Prism GraphPad, and the compounds IC50 calculated from it.
The cell viability assays were taken to determine the anti-tumor activity of these indicated compounds in PC9 cells, which overexpressed Exon 19del+T790M+C797S triple mutant EGFR.

[4] = system: BT474 cells (HER2 positive breast cancer cells); assay: Cell viability assay (CCK8), BT474 cells; details: for IC50: Homo sapiens, BT-474, Table 10, BT474, 72 hours, read-out: IC50 (half inhibitory concentration)
Outline: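 HER2-overexpressing BT474 cells in RPMI1640 were exposed to compounds for 72 hours over 10 concentrations (3-fold dilution, top 10 μM). Viability was measured with CCK8 reagent against a DMSO control, and IC50 was taken from growth inhibition curves.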

[5] = system: PC9BracA1 (EGFR Exon 19 del+T790M, non-small cell lung cancer cells); assay: Cell viability assay (WST/CCK8), PC9Brac1 cells; details: read-out: IC50 (half inhibitory concentration)
Outline: (§2)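 Cells seeded at 3 000 per well in RPMI1640 complete medium, dosed next day with compounds at indicated concentrations (DMSO negative control, EGFR TKIs as positive control).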

[6] = molecular target: T1, EGFR (L858R+T790M) in H1975 cells (Homo sapiens, UniProt P00533, L858R/T790M); assay: Western blot of EGFR protein level (degradation), H1975 cells; details: 16 hours; for EGFR degradation (EGFR level, western blot): H1975 cells, 1, 10, 50, 100, 500 nM; for DC50: H1975 cells, western blot
T1 construct: determined in H1975 cells with the EGFR L858R+T790M mutation; endogenous in cells; host or cells: H1975
T1 sequence (P00533 25-1210 T790M/L858R): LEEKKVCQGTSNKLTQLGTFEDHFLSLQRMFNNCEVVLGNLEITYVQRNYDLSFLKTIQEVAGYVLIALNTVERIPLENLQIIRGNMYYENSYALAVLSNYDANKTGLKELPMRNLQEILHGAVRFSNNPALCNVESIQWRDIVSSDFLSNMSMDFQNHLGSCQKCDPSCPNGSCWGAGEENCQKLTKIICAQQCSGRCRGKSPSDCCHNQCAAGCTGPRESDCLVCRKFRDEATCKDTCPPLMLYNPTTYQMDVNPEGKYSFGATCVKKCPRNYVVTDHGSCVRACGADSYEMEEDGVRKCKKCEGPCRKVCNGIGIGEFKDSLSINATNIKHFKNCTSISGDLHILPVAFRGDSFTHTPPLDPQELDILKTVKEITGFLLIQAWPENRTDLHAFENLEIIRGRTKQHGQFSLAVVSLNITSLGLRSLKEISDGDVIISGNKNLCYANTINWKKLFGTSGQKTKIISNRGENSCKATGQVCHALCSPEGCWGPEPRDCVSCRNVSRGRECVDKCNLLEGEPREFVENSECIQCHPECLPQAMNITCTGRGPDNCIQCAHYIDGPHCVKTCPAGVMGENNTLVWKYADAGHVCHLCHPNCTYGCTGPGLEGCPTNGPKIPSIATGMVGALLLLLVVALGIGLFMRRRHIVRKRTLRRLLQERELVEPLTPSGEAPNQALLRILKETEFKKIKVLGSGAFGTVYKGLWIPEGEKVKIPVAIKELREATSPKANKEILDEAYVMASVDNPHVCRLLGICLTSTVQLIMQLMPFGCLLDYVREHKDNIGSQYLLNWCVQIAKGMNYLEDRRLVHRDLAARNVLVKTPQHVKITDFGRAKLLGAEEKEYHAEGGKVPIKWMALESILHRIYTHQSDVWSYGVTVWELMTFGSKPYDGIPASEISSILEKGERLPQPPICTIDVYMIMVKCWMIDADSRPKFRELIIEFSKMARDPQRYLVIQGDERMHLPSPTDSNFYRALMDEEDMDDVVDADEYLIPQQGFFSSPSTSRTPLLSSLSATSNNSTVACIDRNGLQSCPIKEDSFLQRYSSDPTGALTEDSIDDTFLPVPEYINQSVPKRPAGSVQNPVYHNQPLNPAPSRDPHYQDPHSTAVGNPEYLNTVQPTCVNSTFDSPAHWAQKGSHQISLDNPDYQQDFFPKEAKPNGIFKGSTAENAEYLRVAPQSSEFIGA
Procedure: Cancer cells were planted in 12-well-plate at the density of 0.15 million cells per well with 1 mL RPMI1640 completed culture medium. Compounds with different concentrations (DMSO as a solution system, and 1 μL of compounds of different concentrations was added to 1 mL of the cell culture medium) were added to the cells planted one day before. 16 hours after treated, the medium was discarded and the cells were washed with precooled PBS. The cells were placed on ice and treated with RIPA protein lysis buffer containing halt protease and phosphatase inhibitor. After centrifugation at 10000 rpm at 4° C. for 10 minutes, the supernatant was collected. The same amount of proteins were added into 4×SDS loading buffer and heated at 95° C. for 5 minutes for denaturation, and the samples were stored at −20° C. after denaturation, or directly conducted protein electrophoresis. The 4-20% gradient preformed Electrophoretic gels were purchased from Kingsy. The electrophoresis tank and related components were purchased from Bio-rad company, and the electrophoresis condition was isobaric 120V for 2 hours. PVDF membrane was used for the transmembrane, and the whole transmembrane process was carried out on ice with a constant current of 0.4 amperes for an hour. The membrane was blocked with 5% skimmed milk dilution with TBST buffer. Refer to the corresponding antibody instructions for the specific steps of immunoblotting.
The degradation efficacy of the dacomitinib-based compounds on EGFR was determined in HCC827 and H1975 cell lines, which harboring EGFR Exon 19del and EGFR L858R+T790M mutations respectively.
In FIG. 2, concentration-dependent degradation assays were performed on non-small cell lung cancer cell line H1975 (T790M-mutant cell line, the most common mutation type of first-generation EGFR inhibitors). […] The DC50 of compounds SIAIS262032 and SIAIS262037 are both about 50 nM, which provides great potential for drug development to overcome drug resistance caused by EGFR T790M mutation.
The degradation efficacy of the canertinib-based compounds on EGFR was determined in H1975 cells with the EGFR L858R+T790M mutation.
The H1975 cells were treated with the PROTADs with different concentrations (1, 10, 50, 100, 500 nM) for 16 hours, and then the western blot assay was taken to estimate the EGFR levels of the cell lysates in each group. […] The DC50 of SIAIS262125 and SIAIS262182 are both less than 10 nM, much better than canertinib, which provides great potential for drug development to overcome drug resistance caused by EGFR T790M mutation.

[7] = system: H1975 (EGFR T790M+L858R mutation, non-small cell lung cancer cell line); assay: Cell viability assay (WST/CCK8), H1975 cells; details: Homo sapiens, NCI-H1975, H1975 (L858R + T790M), read-out: IC50 (half inhibitory concentration)
Outline: as §2

[8] = Table 3, poziotinib-based compounds, PC9 (Exon 19 Del), WST (CCK8)
[9] = Table 3, poziotinib-based compounds, WST (CCK8)
[10] = PC9Brac1 (Ex19del + T790M), 72 hours, WST
[11] = Table 7, canertinib-based compounds, PC9Brca1 (Ex19del + T790M)
[12] = Table 6, canertinib-based compounds, PC9 (Exon19 Del), WST
[13] = Table 6, canertinib-based compounds, WST
[14] = Table 7, canertinib-based compounds

For COc1cc2ncnc(Nc3ccc(Cl)c(Cl)c3F)c2cc1OC1CCN(C(=O)CNc2cccc3c2C(=O)N(C2CCC(=O)NC2=O)C3=O)CC1 (stereo not shown) [SIAIS219177, 4-((2-(4-((4-((3,4-dichloro-2-fluorophenyl)amino)-7-methoxyquinazolin-6-yl)oxy)piperidin-1-yl)-2-oxoethyl)amino)-2-(2,6-dioxopiperidin-3-yl)isoindoline-1,3-dione], the IC50 [1, 8] was 38 nM, the IC50 [2, 9] was 8.2 nM and the IC50 [3] was 2.4 nM. It also gave an IC50 [4] of 35.9 nM.

In the case of COc1cc2ncnc(Nc3ccc(Cl)c(Cl)c3F)c2cc1OC1CCN(C(=O)CCSc2cccc3c2C(=O)N(C2CCC(=O)NC2=O)C3=O)CC1 (stereo not shown) [SIAIS249015, 4-((3-(4-((4-((3,4-dichloro-2-fluorophenyl)amino)-7-methoxyquinazolin-6-yl)oxy)piperidin-1-yl)-3-oxopropyl)thio)-2-(2,6-dioxopiperidin-3-yl)isoindoline-1,3-dione], the IC50 [1, 8] is reported as 130 nM, the IC50 [2, 9] is reported as 46 nM and the IC50 [3] is reported as 4.7 nM. For the same compound, the IC50 [4] was 87 nM.

COc1cc2ncnc(Nc3ccc(F)c(Cl)c3)c2cc1NC(=O)/C=C/CN1CCC(N2CCN(C(=O)CCCCCSc3cccc4c3C(=O)N(C3CCC(=O)NC3=O)C4=O)CC2)CC1 (stereo not shown) [SIAIS262032, (E)-N-(4-((3-chloro-4-fluorophenyl)amino)-7-methoxyquinazolin-6-yl)-4-(4-(4-(6-((2-(2,6-dioxopiperidin-3-yl)-1,3-dioxoisoindolin-4-yl)thio)hexanoyl)piperazin-1-yl)piperidin-1-yl)but-2-enamide] was tested, and the IC50 [5, 10] was 438 nM, the IC50 ([1]; PC9 (Exon19 Del), WST (CCK8)) was 43.5 nM and the “EGFR degradation (EGFR level, western blot)” value (shortened to “EGFR degradation”) [6] was “obvious EGFR degradation efficacy”. For the same compound, the DC50 [6] was roughly 50 nM and the IC50 ([2]; WST (CCK8)) was 3.3 nM.

COc1cc2ncnc(Nc3ccc(F)c(Cl)c3)c2cc1NC(=O)/C=C/CN1CCC(N2CCN(C(=O)CCCCCSc3cccc4c3CN(C3CCC(=O)NC3=O)C4=O)CC2)CC1 (stereo not shown) [SIAIS262035, (E)-N-(4-((3-chloro-4-fluorophenyl)amino)-7-methoxyquinazolin-6-yl)-4-(4-(4-(6-((2-(2,6-dioxopiperidin-3-yl)-1-oxoisoindolin-4-yl)thio)hexanoyl)piperazin-1-yl)piperidin-1-yl)but-2-enamide] was tested, and the IC50 [5, 10] was 491 nM, the IC50 ([1]; PC9 (Exon19 Del), WST (CCK8)) was 6.1 nM and the “EGFR degradation” value [6] was “obvious EGFR degradation efficacy”. The IC50 ([2]; WST (CCK8)) was 2.2 nM, the IC50 [4] was 2.1 nM and the IC50 ([7]; 72 hours, WST) was 514 nM.

With COc1cc2ncnc(Nc3ccc(F)c(Cl)c3)c2cc1NC(=O)/C=C/CN1CCC(N2CCN(C(=O)CCCCCCNc3cccc4c3C(=O)N(C3CCC(=O)NC3=O)C4=O)CC2)CC1 (stereo not shown) [SIAIS262037, (E)-N-(4-((3-chloro-4-fluorophenyl)amino)-7-methoxyquinazolin-6-yl)-4-(4-(4-(7-((2-(2,6-dioxopiperidin-3-yl)-1,3-dioxoisoindolin-4-yl)amino)heptanoyl)piperazin-1-yl)piperidin-1-yl)but-2-enamide] the IC50 ([1]; PC9 (Exon19 Del), WST (CCK8)) was 2.1 nM, the “EGFR degradation” value [6] was “obvious EGFR degradation efficacy” and the DC50 [6] was roughly 50 nM. It also gave an IC50 ([2]; WST (CCK8)) of 1.6 nM and an IC50 [4] of 0.9 nM.

C=CC(=O)Nc1cc2c(Nc3ccc(F)c(Cl)c3)ncnc2cc1OCCCN1CCN(C(=O)CCCCCNc2cccc3c2C(=O)N(C2CCC(=O)NC2=O)C3=O)CC1 (stereo not shown) [SIAIS262125, N-(4-((3-chloro-4-fluorophenyl)amino)-7-(3-(4-(6-((2-(2,6-dioxopiperidin-3-yl)-1,3-dioxoisoindolin-4-yl)amino)hexanoyl)piperazin-1-yl)propoxy)quinazolin-6-yl)acrylamide] was tested, and the IC50 [5, 11] was 79 nM, the IC50 [1, 12] was 1.3 nM and the “EGFR degradation” value [6] was “obvious EGFR degradation efficacy”. For the same compound, the IC50 ([2]; WST (CCK8)) was 0.3 nM, the IC50 [2, 13] was 0.3 nM and the “antineoplastic activity (in words)” value ([4]; BT474 cells, 72 hours) was “better antineoplastic activity than the relative EGFR TKIs”. For the same compound, the IC50 [4] was 9.6 nM, the IC50 ([7]; 72 hours, WST) was less than 25 nM and the IC50 [7, 14] was 15 nM.

In the case of C=CC(=O)Nc1cc2c(Nc3ccc(F)c(Cl)c3)ncnc2cc1OCCCN1CCC(N2CCN(CCCCCCSc3cccc4c3CN(C3CCC(=O)NC3=O)C4=O)CC2)CC1 (stereo not shown) [SIAIS262180, N-(4-((3-chloro-4-fluorophenyl)amino)-7-(3-(4-(4-(6-((2-(2,6-dioxopiperidin-3-yl)-1-oxoisoindolin-4-yl)thio)hexyl)piperazin-1-yl)piperidin-1-yl)propoxy)quinazolin-6-yl)acrylamide], the IC50 [5, 11] is reported as 570 nM, the IC50 [1, 12] is reported as 10.2 nM and the “EGFR degradation” value [6] is reported as “obvious EGFR degradation efficacy”. It also gave an IC50 [2, 13] of 4.2 nM, an IC50 [4] of 4.4 nM and an IC50 [7, 14] of 24 nM.

C=CC(=O)Nc1cc2c(Nc3ccc(F)c(Cl)c3)ncnc2cc1OCCCN1CCN(CCCCCCNc2cccc3c2C(=O)N(C2CCC(=O)NC2=O)C3=O)CC1 (stereo not shown) [SIAIS262182, N-(4-((3-chloro-4-fluorophenyl)amino)-7-(3-(4-(6-((2-(2,6-dioxopiperidin-3-yl)-1,3-dioxoisoindolin-4-yl)amino)hexyl)piperazin-1-yl)propoxy)quinazolin-6-yl)acrylamide] was tested, and the IC50 [5, 11] was 192 nM, the IC50 [1, 12] was 11.1 nM and the “EGFR degradation” value [6] was “obvious EGFR degradation efficacy”. It also gave an IC50 [2, 13] of 1.4 nM, an IC50 [4] of 5 nM and an IC50 ([7]; 72 hours, WST) of less than 25 nM. The IC50 [7, 14] was 12 nM.

— US12564638B2 (SHANGHAITECH UNIVERSITY, priority 2019, dated 2026)
